Assay results published in US20260166128A1, “HUMAN AMYLIN ANALOG, AND DERIVATIVE THEREOF AND USE THEREOF” (priority 2022, published 2026).
Numbered stars: 1 amine (or outer) side, 2 acyl side, 3 side chain; on linkers, the order of the positions; unused ones are H or OH. Bridge positions count the residues as written; N and C are the ends. Square brackets hold non-standard residues; d marks the D form. Side chains are listed from the residue outwards. Peptide text beside a SMILES is read from it. * marks the point of attachment. C20 diacid = O=C(O)CCCCCCCCCCCCCCCCCCC(=O)*; C18 diacid = O=C(O)CCCCCCCCCCCCCCCCC(=O)*; γGlu = O=C(O)[C@H](CCC(=O)[*:2])N[*:1]; Hyp = O=C(O)[C@@H]1C[C@@H](O)CN1; AEEA = NCCOCCOCC(=O)O

biological target: T1, human amylin receptor (Homo sapiens, UniProt O60896+P30988); assay: Luciferase assay of amylin derivatives in amylin receptor/CRE-luc CHO cell line; assay type: cell-based; details: CHO-K1/Ga15/AMY3 CRE-luc cells, 24 hours incubation, F12 medium containing 10% FBS; read-out: EC50
T1 construct: host or cells: CHO-K1/Ga15/AMY3 cells, further stably transfected with a CRE-luciferase plasmid
T1 sequence (P30988 25-474): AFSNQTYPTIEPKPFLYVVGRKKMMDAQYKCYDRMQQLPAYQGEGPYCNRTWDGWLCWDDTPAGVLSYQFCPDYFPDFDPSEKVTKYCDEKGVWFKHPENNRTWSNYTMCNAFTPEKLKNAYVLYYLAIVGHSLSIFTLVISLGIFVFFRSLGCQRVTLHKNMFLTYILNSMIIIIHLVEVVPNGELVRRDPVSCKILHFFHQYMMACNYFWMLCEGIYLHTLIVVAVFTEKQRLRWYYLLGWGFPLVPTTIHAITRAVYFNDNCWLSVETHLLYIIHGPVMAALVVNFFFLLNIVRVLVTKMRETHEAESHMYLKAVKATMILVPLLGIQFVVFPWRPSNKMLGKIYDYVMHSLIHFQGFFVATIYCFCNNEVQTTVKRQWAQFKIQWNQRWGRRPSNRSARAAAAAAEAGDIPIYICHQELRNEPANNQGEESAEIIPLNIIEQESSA
T1 sequence (O60896 24-148 partner): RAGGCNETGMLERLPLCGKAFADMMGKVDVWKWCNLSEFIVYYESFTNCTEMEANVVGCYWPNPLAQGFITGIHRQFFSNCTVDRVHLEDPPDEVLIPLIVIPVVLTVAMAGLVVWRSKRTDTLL
Method: The experiment was intended to detect the activity or efficacy of the amylin derivatives on a human amylin receptor in vitro by luciferase assay.
50 μL of growth medium (F12 medium containing 10% FBS) was added into each well of a white 96-well plate, and the stably transfected amylin/CRE-lue CHO cells were inoculated into the white 96-well plate at a density of about 20,000 cells/well for activity determination.

Structure (SMILES) | EC50
CC[C@H](C)[C@H](NC(=O)[C@@H]1CCCN1C(=O)CNC(=O)[C@H](CCCCNC(=O)CC[C@H](NC(=O)CCCCCCCCCCCCCCCCCCC(=O)O)C(=O)O)NC(=O)[C@H](CC(N)=O)NC(=O)[C@H](CC(N)=O)NC(=O)[C@H](CO)NC(=O)[C@H](CO)NC(=O)[C@H](Cc1c[nH]cn1)NC(=O)[C@H](CCCNC(=N)N)NC(=O)[C@H](CC(C)C)NC(=O)[C@H](Cc1ccccc1)NC(=O)[C@H](CC(=O)O)NC(=O)[C@H](C)NC(=O)[C@H](CC(C)C)NC(=O)[C@H](CCCNC(=N)N)NC(=O)[C@H](CCC(N)=O)NC(=O)[C@@H](NC(=O)[C@H](C)NC(=O)[C@@H]1CSSC[C@H](NC(=O)[C@@H](N)CCCNC(=N)N)C(=O)N[C@@H](CC(N)=O)C(=O)N[C@@H]([C@@H](C)O)C(=O)N[C@@H](C)C(=O)N[C@@H]([C@@H](C)O)C(=O)N1)[C@@H](C)O)C(=O)N[C@@H](CC(C)C)C(=O)N1CCC[C@H]1C(=O)N1CCC[C@H]1C(=O)N[C@H](C(=O)N[C@@H](CC(N)=O)C(=O)N[C@H](C(=O)NCC(=O)N[C@@H](CO)C(=O)N[C@@H](CC(N)=O)C(=O)N[C@H](C(=O)N1C[C@H](O)C[C@H]1C(N)=O)[C@@H](C)O)C(C)C)[C@@H](C)O [PD082] (H-RCNTATCATQRLADFLRHSSNNK([γGlu-C20 diacid])GPILPPTNVGSNT[Hyp]-NH2; disulfide 2-7) | 0.038 nM
CC[C@H](C)[C@H](NC(=O)[C@@H]1CCCN1C(=O)CNC(=O)[C@H](CCCCNC(=O)COCCOCCNC(=O)COCCOCCNC(=O)CC[C@H](NC(=O)CCCCCCCCCCCCCCCCCCC(=O)O)C(=O)O)NC(=O)[C@H](CC(N)=O)NC(=O)[C@H](CC(N)=O)NC(=O)[C@H](CO)NC(=O)[C@H](CO)NC(=O)[C@H](Cc1c[nH]cn1)NC(=O)[C@H](CCCNC(=N)N)NC(=O)[C@H](CC(C)C)NC(=O)[C@H](Cc1ccccc1)NC(=O)[C@H](CC(=O)O)NC(=O)[C@H](C)NC(=O)[C@H](CC(C)C)NC(=O)[C@H](CCCNC(=N)N)NC(=O)[C@H](CCC(N)=O)NC(=O)[C@@H](NC(=O)[C@H](C)NC(=O)[C@@H]1CSSC[C@H](NC(=O)[C@@H](N)CCCNC(=N)N)C(=O)N[C@@H](CC(N)=O)C(=O)N[C@@H]([C@@H](C)O)C(=O)N[C@@H](C)C(=O)N[C@@H]([C@@H](C)O)C(=O)N1)[C@@H](C)O)C(=O)N[C@@H](CC(C)C)C(=O)N1CCC[C@H]1C(=O)N1CCC[C@H]1C(=O)N[C@H](C(=O)N[C@@H](CC(N)=O)C(=O)N[C@H](C(=O)NCC(=O)N[C@@H](CO)C(=O)N[C@@H](CC(N)=O)C(=O)N[C@H](C(=O)N1C[C@H](O)C[C@H]1C(N)=O)[C@@H](C)O)C(C)C)[C@@H](C)O [PD083] (H-RCNTATCATQRLADFLRHSSNNK([AEEA-AEEA-γGlu-C20 diacid])GPILPPTNVGSNT[Hyp]-NH2; disulfide 2-7) | 0.037 nM
CC[C@H](C)[C@H](NC(=O)[C@@H]1CCCN1C(=O)CNC(=O)[C@H](CCCCNC(=O)CC[C@H](NC(=O)CCCCCCCCCCCCCCCCC(=O)O)C(=O)O)NC(=O)[C@H](CC(N)=O)NC(=O)[C@H](CC(N)=O)NC(=O)[C@H](CO)NC(=O)[C@H](CO)NC(=O)[C@H](Cc1c[nH]cn1)NC(=O)[C@H](CCCNC(=N)N)NC(=O)[C@H](CC(C)C)NC(=O)[C@H](Cc1ccccc1)NC(=O)[C@H](CC(=O)O)NC(=O)[C@H](C)NC(=O)[C@H](CC(C)C)NC(=O)[C@H](CCCNC(=N)N)NC(=O)[C@H](CCC(N)=O)NC(=O)[C@@H](NC(=O)[C@H](C)NC(=O)[C@@H]1CSSC[C@H](NC(=O)[C@@H](N)CCCNC(=N)N)C(=O)N[C@@H](CC(N)=O)C(=O)N[C@@H]([C@@H](C)O)C(=O)N[C@@H](C)C(=O)N[C@@H]([C@@H](C)O)C(=O)N1)[C@@H](C)O)C(=O)N[C@@H](CC(C)C)C(=O)N1CCC[C@H]1C(=O)N1CCC[C@H]1C(=O)N[C@H](C(=O)N[C@@H](CC(N)=O)C(=O)N[C@H](C(=O)NCC(=O)N[C@@H](CO)C(=O)N[C@@H](CC(N)=O)C(=O)N[C@H](C(=O)N1C[C@H](O)C[C@H]1C(N)=O)[C@@H](C)O)C(C)C)[C@@H](C)O [PD084] (H-RCNTATCATQRLADFLRHSSNNK([γGlu-C18 diacid])GPILPPTNVGSNT[Hyp]-NH2; disulfide 2-7 (inferred); N-terminus assumed) | 0.008 nM
CC[C@H](C)[C@H](NC(=O)[C@@H]1CCCN1C(=O)CNC(=O)[C@H](CCCCNC(=O)COCCOCCNC(=O)COCCOCCNC(=O)CC[C@H](NC(=O)CCCCCCCCCCCCCCCCC(=O)O)C(=O)O)NC(=O)[C@H](CC(N)=O)NC(=O)[C@H](CC(N)=O)NC(=O)[C@H](CO)NC(=O)[C@H](CO)NC(=O)[C@H](Cc1c[nH]cn1)NC(=O)[C@H](CCCNC(=N)N)NC(=O)[C@H](CC(C)C)NC(=O)[C@H](Cc1ccccc1)NC(=O)[C@H](CC(=O)O)NC(=O)[C@H](C)NC(=O)[C@H](CC(C)C)NC(=O)[C@H](CCCNC(=N)N)NC(=O)[C@H](CCC(N)=O)NC(=O)[C@@H](NC(=O)[C@H](C)NC(=O)[C@@H]1CSSC[C@H](NC(=O)[C@@H](N)CCCNC(=N)N)C(=O)N[C@@H](CC(N)=O)C(=O)N[C@@H]([C@@H](C)O)C(=O)N[C@@H](C)C(=O)N[C@@H]([C@@H](C)O)C(=O)N1)[C@@H](C)O)C(=O)N[C@@H](CC(C)C)C(=O)N1CCC[C@H]1C(=O)N1CCC[C@H]1C(=O)N[C@H](C(=O)N[C@@H](CC(N)=O)C(=O)N[C@H](C(=O)NCC(=O)N[C@@H](CO)C(=O)N[C@@H](CC(N)=O)C(=O)N[C@H](C(=O)N1C[C@H](O)C[C@H]1C(N)=O)[C@@H](C)O)C(C)C)[C@@H](C)O [PD085] (H-RCNTATCATQRLADFLRHSSNNK([AEEA-AEEA-γGlu-C18 diacid])GPILPPTNVGSNT[Hyp]-NH2; disulfide 2-7) | 0.005 nM
CC[C@H](C)[C@H](NC(=O)[C@@H]1CCCN1C(=O)CNC(=O)[C@H](CC(C)C)NC(=O)[C@H](CCCCNC(=O)CC[C@H](NC(=O)CCCCCCCCCCCCCCCCCCC(=O)O)C(=O)O)NC(=O)[C@H](CC(N)=O)NC(=O)[C@H](CO)NC(=O)[C@H](CO)NC(=O)[C@H](Cc1c[nH]cn1)NC(=O)[C@H](CCCNC(=N)N)NC(=O)[C@H](CC(C)C)NC(=O)[C@H](Cc1ccccc1)NC(=O)[C@H](CC(=O)O)NC(=O)[C@H](C)NC(=O)[C@H](CC(C)C)NC(=O)[C@H](CCCNC(=N)N)NC(=O)[C@H](CCC(N)=O)NC(=O)[C@@H](NC(=O)[C@H](C)NC(=O)[C@@H]1CSSC[C@H](NC(=O)[C@@H](N)CCCNC(=N)N)C(=O)N[C@@H](CC(N)=O)C(=O)N[C@@H]([C@@H](C)O)C(=O)N[C@@H](C)C(=O)N[C@@H]([C@@H](C)O)C(=O)N1)[C@@H](C)O)C(=O)N[C@@H](CC(C)C)C(=O)N1CCC[C@H]1C(=O)N1CCC[C@H]1C(=O)N[C@H](C(=O)N[C@@H](CC(N)=O)C(=O)N[C@H](C(=O)NCC(=O)N[C@@H](CO)C(=O)N[C@@H](CC(N)=O)C(=O)N[C@H](C(=O)N1C[C@H](O)C[C@H]1C(N)=O)[C@@H](C)O)C(C)C)[C@@H](C)O [PD086] (H-RCNTATCATQRLADFLRHSSNK([γGlu-C20 diacid])LGPILPPTNVGSNT[Hyp]-NH2; disulfide 2-7) | 0.033 nM
CC[C@H](C)[C@H](NC(=O)[C@@H]1CCCN1C(=O)CNC(=O)[C@H](CC(C)C)NC(=O)[C@H](CCCCNC(=O)COCCOCCNC(=O)COCCOCCNC(=O)CC[C@H](NC(=O)CCCCCCCCCCCCCCCCC(=O)O)C(=O)O)NC(=O)[C@H](CC(N)=O)NC(=O)[C@H](CO)NC(=O)[C@H](CO)NC(=O)[C@H](Cc1c[nH]cn1)NC(=O)[C@H](CCCNC(=N)N)NC(=O)[C@H](CC(C)C)NC(=O)[C@H](Cc1ccccc1)NC(=O)[C@H](CC(=O)O)NC(=O)[C@H](C)NC(=O)[C@H](CC(C)C)NC(=O)[C@H](CCCNC(=N)N)NC(=O)[C@H](CCC(N)=O)NC(=O)[C@@H](NC(=O)[C@H](C)NC(=O)[C@@H]1CSSC[C@H](NC(=O)[C@@H](N)CCCNC(=N)N)C(=O)N[C@@H](CC(N)=O)C(=O)N[C@@H]([C@@H](C)O)C(=O)N[C@@H](C)C(=O)N[C@@H]([C@@H](C)O)C(=O)N1)[C@@H](C)O)C(=O)N[C@@H](CC(C)C)C(=O)N1CCC[C@H]1C(=O)N1CCC[C@H]1C(=O)N[C@H](C(=O)N[C@@H](CC(N)=O)C(=O)N[C@H](C(=O)NCC(=O)N[C@@H](CO)C(=O)N[C@@H](CC(N)=O)C(=O)N[C@H](C(=O)N1C[C@H](O)C[C@H]1C(N)=O)[C@@H](C)O)C(C)C)[C@@H](C)O [PD089] (H-RCNTATCATQRLADFLRHSSNK([AEEA-AEEA-γGlu-C18 diacid])LGPILPPTNVGSNT[Hyp]-NH2; disulfide 2-7) | 0.018 nM
CC[C@H](C)[C@H](NC(=O)[C@@H]1CCCN1C(=O)CNC(=O)[C@H](CC(C)C)NC(=O)[C@H](CC(N)=O)NC(=O)[C@H](CCCCNC(=O)CC[C@H](NC(=O)CCCCCCCCCCCCCCCCCCC(=O)O)C(=O)O)NC(=O)[C@H](CO)NC(=O)[C@H](CO)NC(=O)[C@H](Cc1c[nH]cn1)NC(=O)[C@H](CCCNC(=N)N)NC(=O)[C@H](CC(C)C)NC(=O)[C@H](Cc1ccccc1)NC(=O)[C@H](CC(=O)O)NC(=O)[C@H](C)NC(=O)[C@H](CC(C)C)NC(=O)[C@H](CCCNC(=N)N)NC(=O)[C@H](CCC(N)=O)NC(=O)[C@@H](NC(=O)[C@H](C)NC(=O)[C@@H]1CSSC[C@H](NC(=O)[C@@H](N)CCCNC(=N)N)C(=O)N[C@@H](CC(N)=O)C(=O)N[C@@H]([C@@H](C)O)C(=O)N[C@@H](C)C(=O)N[C@@H]([C@@H](C)O)C(=O)N1)[C@@H](C)O)C(=O)N[C@@H](CC(C)C)C(=O)N1CCC[C@H]1C(=O)N1CCC[C@H]1C(=O)N[C@H](C(=O)N[C@@H](CC(N)=O)C(=O)N[C@H](C(=O)NCC(=O)N[C@@H](CO)C(=O)N[C@@H](CC(N)=O)C(=O)N[C@H](C(=O)N1C[C@H](O)C[C@H]1C(N)=O)[C@@H](C)O)C(C)C)[C@@H](C)O [PD090] (H-RCNTATCATQRLADFLRHSSK([γGlu-C20 diacid])NLGPILPPTNVGSNT[Hyp]-NH2; disulfide 2-7) | 0.031 nM
